The text below walks through data of patent US11247971B2, “Small molecule inhibitors of lactate dehydrogenase and methods of use thereof” (THE UNITED STATES OF AMERICA, AS REPRESENTED BY THE …, priority 2014, dated 2022).

One data set concerns the target Human LDHA (Homo sapiens (Human), UniProt P00338). The data set can be described thus: human LDHA primary biochemical assay. Conditions: read-out: Inhibitory activity IC50, assay of Example 1, activity level classes.
Data set [1] in a line: pharmacokinetics after oral administration in mice. Conditions: male CD1 mice, oral 10 mg/kg. Type of data set: in vivo.
The subject of another data set is MiaPaCa2 cells. As to the kind of experiment: cell-based HT Lactate assay, colorimetric/fluorometric detection (inhibition of lactate production). Conditions: class symbols. On the procedure:
Cell-based HT Lactate assay is a miniaturized Biovision Lactate Colorimetric/Fluorometric Assay Kit (Cat #K607-100). The assay is roughly a 3.5 hour assay run in a 1536 plate format. Cell number optimization should be run for each cell line to achieve an optimal number in which lactate production equals roughly 90% of the standard curve range. Cell number per well optimization has been performed with the following cell lines: MiaPaCa2—500 cells/well, SNU398—500 cells/well, and P493—500 cells/well.
The lactate activity in Table 8 is represented by 0 to 3 pluses as follows: […]; ++1-10 μM; +10-57 μM; and −>57 μM.

From the text for Human LDHA: This example describes a human LDHA primary biochemical assay employed in the characterization of a compound of formula (I) in an embodiment of the invention.
Test compounds were placed in a Greiner Bio-One (Monroe, N.C.) 1536-well black solid bottom assay plate. 200 millimolar (mM) Tris HCl, pH 7.4, 100 micromolar (μM) EDTA and 0.01% TWEEN-20™, final concentration, was used as the assay buffer. The LDHA reagent was 2 nanomolar (nM) Human LDHA (Meridian Life Science, Inc., Memphis, Tenn.), final concentration, in assay buffer. The substrate reagent was 0.06 mM NADH and 0.2 mM sodium pyruvate, final concentration, in assay buffer. […] The inhibition of LDHA activity was measured by fluorescence emission.

For the compound `NS(=O)(=O)c1ccc(Cc2c(-c3ccc(F)c(OC4CC4)c3)nn(-c3nc(C(=O)O)cs3)c2CC2CC2)cc1F` [Compound 471, 2-(3-(3-cyclopropoxy-4-fluorophenyl)-5-(cyclopropylmethyl)-4-(3-fluoro-4-sulfamoylbenzyl)-1H-pyrazol-1-yl)thiazole-4-carboxylic acid], the IC50 at Human LDHA was below 100 nM. Turning to `CCOC(=O)c1csc(-n2nc(-c3cccc(-c4ccccc4)c3)c(Cc3ccc(S(N)(=O)=O)cc3)c2C(F)(F)F)n1` [Compound 141, ethyl 2-(3-([1,1′-bipheny]-3-yl)-4-(4-sulfamoylbenzyl)-5-(trifluoromethyl)-1H-pyrazol-1-yl)thiazole-4-carboxylate], the “F (fraction of the dose that enters systemic circulation)” value in data set [1] is recorded as 69%. In data set [1] (plasma, LC/MS/MS), the AUClast was found to be 2409 ng·h/mL and the Cmax is recorded as 851 ng/mL. For “2-(3-(3′-amino-[1,1′-biphenyl]-3-yl)-4-(4-sulfamoylbenzyl)-1H-pyrazol-1-yl)thiazole-4-carboxylic acid [Compound 523]”, the half-maximal inhibitory concentration (IC50) in the data set on MiaPaCa2 cells fell in the range of 1000 to 10000 nM; at Human LDHA it was 100 to 1000 nM. With `NS(=O)(=O)c1ccc(Cc2c(-c3cccc(-c4ccccc4)c3)nn(-c3nc(C(=O)O)cs3)c2C(F)(F)F)cc1` [Compound 42, 2-(3-([1,1′-biphenyl]-3-yl)-4-(4-sulfamoylbenzyl)-5-(trifluoromethyl)-1H-pyrazol-1-yl)thiazole-4-carboxylic acid], the “F (fraction of the dose that enters systemic circulation)” value in data set [1] came to 34%.

The term IC50 denotes the concentration at which inhibition is half-maximal. As a reminder, the Cmax is the highest concentration seen after dosing.
